pIC50: −log10 of the molar value.
Target: Maternal embryonic leucine zipper kinase (Homo sapiens, UniProt Q14680)
Test: Kinase Assay: MELK activity was determined in the presence or absence of compounds using fluorescein isothiocyanate-labeled (FITC-labeled) histone H3 peptide as a substrate. The extent of FITC-labeled histone H3 peptide phosphorylation was measured by immobilized metal ion affinity-based fluorescence polarization (IMAP) technology (Sportsman J R, et al., Assay Drug Dev. Technol. 2: 205-14, 2004) …
Format: single protein

Sequence of Maternal embryonic leucine zipper kinase (Q14680 whole entry): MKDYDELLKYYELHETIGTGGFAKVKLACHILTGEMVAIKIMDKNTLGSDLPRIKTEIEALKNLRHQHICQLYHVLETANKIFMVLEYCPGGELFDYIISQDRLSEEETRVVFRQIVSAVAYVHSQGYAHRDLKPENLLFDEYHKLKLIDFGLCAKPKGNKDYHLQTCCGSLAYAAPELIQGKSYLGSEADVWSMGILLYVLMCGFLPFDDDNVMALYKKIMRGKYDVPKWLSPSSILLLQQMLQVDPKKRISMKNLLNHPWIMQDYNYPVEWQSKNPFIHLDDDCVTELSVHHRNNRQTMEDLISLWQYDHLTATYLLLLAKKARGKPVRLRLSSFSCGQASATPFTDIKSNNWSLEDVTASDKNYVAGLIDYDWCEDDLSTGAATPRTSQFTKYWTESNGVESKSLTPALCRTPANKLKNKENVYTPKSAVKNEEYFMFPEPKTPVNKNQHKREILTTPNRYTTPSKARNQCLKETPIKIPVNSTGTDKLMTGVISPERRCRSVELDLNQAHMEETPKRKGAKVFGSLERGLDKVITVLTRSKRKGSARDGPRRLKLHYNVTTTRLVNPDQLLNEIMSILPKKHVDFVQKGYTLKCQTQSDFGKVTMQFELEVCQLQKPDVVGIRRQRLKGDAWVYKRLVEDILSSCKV

Row | SMILES | pIC50
1 | CC(=O)c1cnc2ccc(-c3cc(F)c(O)c(Cl)c3)nc2c1N[C@H]1CC[C@H](NC(=O)[C@@H]2CCCN2)CC1 | 8.62
2 | CC(=O)c1cnc2ccc(-c3cc(Cl)c(O)c(Cl)c3)nc2c1NC[C@H]1CC[C@H](N(C)C)CC1 | 9.22

From ChEMBL document CHEMBL3638466 (2015)
